From ChEMBL document CHEMBL1201862, “PubChem BioAssay data set” (2004)
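Assay format: 96-well plates, 48-hour exposure. GI50 marks 50% less growth.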 The source made the active and inactive calls. Rule as the data show it: active = GI50 up to about 1.1 µM and inactive = higher.

Key:
Test in all cases: NCI-60 cell line screen, 48 h
ACHN = test system: ACHN
NCI-H226 = test system: NCI-H226
A498 = test system: A498
OVCAR-4 = test system: OVCAR-4
LOX IMVI = test system: LOX IMVI
A549 = test system: A549
DMS-273 = test system: DMS-273
OVCAR-8 = test system: OVCAR-8
Malme-3M = test system: Malme-3M
UO-31 = test system: UO-31
HOP-62 = test system: HOP-62
SK-MEL-28 = test system: SK-MEL-28
KM-20L2 = test system: KM-20L2
NCI-H23 = test system: NCI-H23
SF-268 = test system: SF-268
RXF 393 = test system: RXF 393
SK-MEL-5 = test system: SK-MEL-5
SNB-19 = test system: SNB-19
M14 = test system: M14
MOLT-4 = test system: MOLT-4
CCRF-CEM = test system: CCRF-CEM
HT-29 = test system: HT-29
NCI-H522 = test system: NCI-H522
COLO 205 = test system: COLO 205
HL-60 = test system: HL-60
UACC-257 = test system: UACC-257
HCT-15 = test system: HCT-15
UACC-62 = test system: UACC-62
K562 = test system: K562
EKVX = test system: EKVX
HCC 2998 = test system: HCC 2998
CAKI-1 = test system: CAKI-1
OVCAR-3 = test system: OVCAR-3
SK-MEL-2 = test system: SK-MEL-2
SF-539 = test system: SF-539
HOP-92 = test system: HOP-92
RPMI-8226 = test system: RPMI-8226
HCT-116 = test system: HCT-116
SNB-75 = test system: SNB-75
KM12 = test system: KM12
SW-620 = test system: SW-620
SN12C = test system: SN12C
OVCAR-5 = test system: OVCAR-5
U-251 = test system: U-251
M19-MEL = test system: M19-MEL
IGROV-1 = test system: IGROV-1
SF-295 = test system: SF-295
SK-OV-3 = test system: SK-OV-3
786-0 = test system: 786-0
SR = test system: SR
SNB-78 = test system: SNB-78
NCI-H460 = test system: NCI-H460
TK-10 = test system: TK-10
XF498 = test system: XF498
DLD-1 = test system: DLD-1
LXFL 529 = test system: LXFL 529
MDA-N = test system: MDA-N
MCF7 = test system: MCF7
Hs-578T = test system: Hs-578T
T47D = test system: T47D
MDA-MB-231 = test system: MDA-MB-231
MDA-MB-435 = test system: MDA-MB-435
NCI/ADR-RES = test system: NCI/ADR-RES
BT-549 = test system: BT-549
PC-3 = test system: PC-3
DU-145 = test system: DU-145

## CN(C)C1(C#N)CCC2(CC1)OCCO2
ACHN
  GI50: > 100 µM (inactive)
NCI-H226
  GI50: > 100 µM (inactive)
A498
  GI50: > 100 µM (inactive)
OVCAR-4
  GI50: > 100 µM (inactive)
LOX IMVI
  GI50: > 100 µM (inactive)
A549
  GI50: > 100 µM (inactive)
DMS-273
  GI50: > 100 µM (inactive)
OVCAR-8
  GI50: > 100 µM (inactive)
Malme-3M
  GI50: > 100 µM (inactive)
UO-31
  GI50: > 100 µM (inactive)
HOP-62
  GI50: > 100 µM (inactive)
SK-MEL-28
  GI50: > 100 µM (inactive)
KM-20L2
  GI50: > 100 µM (inactive)
NCI-H23
  GI50: > 100 µM (inactive)
SF-268
  GI50: > 100 µM (inactive)
RXF 393
  GI50: > 100 µM (inactive)
SK-MEL-5
  GI50: > 100 µM (inactive)
SNB-19
  GI50: > 100 µM (inactive)
M14
  GI50: > 100 µM (inactive)
MOLT-4
  GI50: > 100 µM (inactive)
CCRF-CEM
  GI50: > 100 µM (inactive)
HT-29
  GI50: > 100 µM (inactive)
NCI-H522
  GI50: > 100 µM (inactive)
COLO 205
  GI50: > 100 µM (inactive)
HL-60
  GI50: > 100 µM (inactive)
UACC-257
  GI50: > 100 µM (inactive)
HCT-15
  GI50: > 100 µM
UACC-62
  GI50: > 100 µM (inactive)
K562
  GI50: > 100 µM (inactive)
EKVX
  GI50: > 100 µM (inactive)
HCC 2998
  GI50: > 100 µM (inactive)
CAKI-1
  GI50: > 100 µM (inactive)
OVCAR-3
  GI50: > 100 µM (inactive)
SK-MEL-2
  GI50: > 100 µM (inactive)
SF-539
  GI50: > 100 µM (inactive)
HOP-92
  GI50: > 100 µM (inactive)
RPMI-8226
  GI50: > 100 µM (inactive)
HCT-116
  GI50: > 100 µM (inactive)
SNB-75
  GI50: > 100 µM (inactive)
KM12
  GI50: > 100 µM (inactive)
SW-620
  GI50: > 100 µM (inactive)
SN12C
  GI50: > 100 µM (inactive)
OVCAR-5
  GI50: > 100 µM (inactive)
U-251
  GI50: > 100 µM (inactive)
M19-MEL
  GI50: > 100 µM (inactive)
IGROV-1
  GI50: > 100 µM (inactive)
SF-295
  GI50: > 100 µM (inactive)
SK-OV-3
  GI50: > 100 µM (inactive)
786-0
  GI50: > 100 µM (inactive)
SR
  GI50: > 100 µM (inactive)
SNB-78
  GI50: > 100 µM (inactive)
NCI-H460
  GI50: > 100 µM (inactive)
TK-10
  GI50: > 100 µM (inactive)

## CCSc1c2ccccc2nc2c(OC)ccc(OC)c12
NCI-H226
  GI50: 25.1 µM (inactive)
A498
  GI50: 31 µM (inactive)
A549
  GI50: 70.6 µM (inactive)
DMS-273
  GI50: 21.9 µM (inactive)
OVCAR-8
  GI50: 22.1 µM (inactive)
UO-31
  GI50: 25.9 µM (inactive)
HOP-62
  GI50: 36.5 µM (inactive)
SK-MEL-28
  GI50: 19.8 µM (inactive)
NCI-H23
  GI50: > 10 µM (inactive)
SF-268
  GI50: 22.8 µM (inactive)
RXF 393
  GI50: 18.6 µM (inactive)
SNB-19
  GI50: 29.1 µM (inactive)
M14
  GI50: 35.7 µM (inactive)
MOLT-4
  GI50: 22 µM (inactive)
CCRF-CEM
  GI50: 36.3 µM (inactive)
HT-29
  GI50: 25.7 µM (inactive)
NCI-H522
  GI50: 41.2 µM (inactive)
HL-60
  GI50: 23.3 µM (inactive)
UACC-257
  GI50: 22.4 µM (inactive)
UACC-62
  GI50: 20.6 µM (inactive)
EKVX
  GI50: > 100 µM (inactive)
HOP-92
  GI50: 22.3 µM (inactive)
HCT-116
  GI50: 20.1 µM (inactive)
KM12
  GI50: 24.7 µM (inactive)
OVCAR-5
  GI50: 42.3 µM (inactive)
U-251
  GI50: 19.3 µM (inactive)
M19-MEL
  GI50: 18.5 µM (inactive)
IGROV-1
  GI50: 26.7 µM (inactive)
SF-295
  GI50: 25.2 µM (inactive)
SK-OV-3
  GI50: 24.7 µM (inactive)
SR
  GI50: 23.9 µM (inactive)
SNB-78
  GI50: 14.5 µM (inactive)
NCI-H460
  GI50: 20.7 µM (inactive)
TK-10
  GI50: 33.8 µM (inactive)

## Cc1nc2c(n1CCC(C)C)C(=O)c1ccccc1C2=O
ACHN
  GI50: 29.9 µM (inactive)
NCI-H226
  GI50: 45.2 µM (inactive)
XF498
  GI50: 17.2 µM (inactive)
OVCAR-4
  GI50: 36.6 µM (inactive)
LOX IMVI
  GI50: 14.7 µM (inactive)
A549
  GI50: 30.4 µM (inactive)
DMS-273
  GI50: 11 µM (inactive)
OVCAR-8
  GI50: 27.9 µM (inactive)
Malme-3M
  GI50: 24.1 µM (inactive)
UO-31
  GI50: 24.8 µM (inactive)
HOP-62
  GI50: 18 µM (inactive)
SK-MEL-28
  GI50: 17.3 µM (inactive)
KM-20L2
  GI50: 28.5 µM (inactive)
NCI-H23
  GI50: 22.3 µM (inactive)
SF-268
  GI50: 14.3 µM (inactive)
RXF 393
  GI50: 23.4 µM (inactive)
SK-MEL-5
  GI50: 14.6 µM (inactive)
SNB-19
  GI50: 39.7 µM (inactive)
M14
  GI50: 20.1 µM (inactive)
MOLT-4
  GI50: 8.26 µM (inactive)
CCRF-CEM
  GI50: 13.6 µM (inactive)
HT-29
  GI50: 20.5 µM (inactive)
NCI-H522
  GI50: 20.5 µM (inactive)
COLO 205
  GI50: 14.3 µM (inactive)
HL-60
  GI50: 6 µM (inactive)
UACC-257
  GI50: 27.7 µM (inactive)
DLD-1
  GI50: 11.1 µM (inactive)
HCT-15
  GI50: 11.9 µM
UACC-62
  GI50: 12.2 µM (inactive)
K562
  GI50: 8.07 µM (inactive)
EKVX
  GI50: 29.7 µM (inactive)
HCC 2998
  GI50: 40.9 µM (inactive)
OVCAR-3
  GI50: 23.5 µM (inactive)
SK-MEL-2
  GI50: 17.5 µM (inactive)
SF-539
  GI50: 12 µM (inactive)
HCT-116
  GI50: 6.84 µM (inactive)
SNB-75
  GI50: 20.1 µM (inactive)
KM12
  GI50: 21.3 µM (inactive)
SW-620
  GI50: 37.9 µM (inactive)
SN12C
  GI50: 23.2 µM (inactive)
LXFL 529
  GI50: 13.1 µM (inactive)
U-251
  GI50: 12.7 µM (inactive)
M19-MEL
  GI50: 14.5 µM (inactive)
IGROV-1
  GI50: 22.3 µM (inactive)
SF-295
  GI50: 21.3 µM (inactive)
SK-OV-3
  GI50: 38.4 µM (inactive)
786-0
  GI50: 24.9 µM (inactive)
SR
  GI50: 4.71 µM (inactive)
SNB-78
  GI50: 28.1 µM (inactive)
NCI-H460
  GI50: 6.08 µM (inactive)
TK-10
  GI50: 41.2 µM (inactive)

## O=C(N/N=C\c1ccc([N+](=O)[O-])cc1)Nc1cccc2ccccc12
ACHN
  GI50: 27.5 µM (inactive)
NCI-H226
  GI50: 17.7 µM (inactive)
MDA-N
  GI50: > 100 µM (inactive)
MCF7
  GI50: > 43.7 µM (inactive)
Hs-578T
  GI50: 3.99 µM (inactive)
A498
  GI50: 14 µM (inactive)
OVCAR-4
  GI50: > 25.9 µM (inactive)
LOX IMVI
  GI50: 22.5 µM (inactive)
T47D
  GI50: > 23.1 µM (inactive)
MDA-MB-231
  GI50: 14.1 µM (inactive)
MDA-MB-435
  GI50: > 100 µM (inactive)
A549
  GI50: > 49.9 µM (inactive)
OVCAR-8
  GI50: 6.03 µM (inactive)
Malme-3M
  GI50: 27.7 µM (inactive)
UO-31
  GI50: 24.5 µM (inactive)
HOP-62
  GI50: 5.93 µM (inactive)
SK-MEL-28
  GI50: > 100 µM (inactive)
NCI-H23
  GI50: 18.8 µM (inactive)
SF-268
  GI50: 4.88 µM (inactive)
RXF 393
  GI50: 11 µM (inactive)
SK-MEL-5
  GI50: 31.3 µM (inactive)
SNB-19
  GI50: 5.07 µM (inactive)
M14
  GI50: 58.9 µM (inactive)
MOLT-4
  GI50: > 100 µM (inactive)
CCRF-CEM
  GI50: > 100 µM (inactive)
HT-29
  GI50: > 100 µM (inactive)
NCI-H522
  GI50: 20.4 µM (inactive)
COLO 205
  GI50: > 100 µM (inactive)
HL-60
  GI50: > 31.6 µM (inactive)
UACC-257
  GI50: > 79.3 µM (inactive)
NCI/ADR-RES
  GI50: 19.1 µM (inactive)
HCT-15
  GI50: > 50.5 µM
UACC-62
  GI50: 13.2 µM (inactive)
K562
  GI50: > 100 µM (inactive)
EKVX
  GI50: 29.1 µM (inactive)
HCC 2998
  GI50: 24.1 µM (inactive)
CAKI-1
  GI50: 15.3 µM (inactive)
OVCAR-3
  GI50: > 37.8 µM (inactive)
SK-MEL-2
  GI50: 5.55 µM (inactive)
SF-539
  GI50: 10.7 µM (inactive)
HOP-92
  GI50: 6.15 µM (inactive)
RPMI-8226
  GI50: > 100 µM (inactive)
HCT-116
  GI50: 28.5 µM (inactive)
SNB-75
  GI50: 3.23 µM (inactive)
KM12
  GI50: > 29.7 µM (inactive)
SW-620
  GI50: > 100 µM (inactive)
SN12C
  GI50: 48.9 µM (inactive)
OVCAR-5
  GI50: > 100 µM (inactive)
U-251
  GI50: 4.79 µM (inactive)
IGROV-1
  GI50: > 63.2 µM (inactive)
SF-295
  GI50: 7.28 µM (inactive)
SK-OV-3
  GI50: 4.5 µM (inactive)
786-0
  GI50: 7.1 µM (inactive)
BT-549
  GI50: 4.25 µM (inactive)
SR
  GI50: > 55.1 µM (inactive)
PC-3
  GI50: 23 µM (inactive)
NCI-H460
  GI50: > 37.3 µM (inactive)
DU-145
  GI50: 24.9 µM (inactive)
TK-10
  GI50: 14.5 µM (inactive)
